In US12590083B2, “Inhibitors of spinster homolog 2 (SPNS2) for use in therapy” (University of Virginia Patent Foundation, priority 2019, dated 2026):
Where a name gives a salt, the structure may show the parent alone.

Each molecule was assayed against T1, human SPNS2 (Homo sapiens, UniProt Q8IVW8) (assay: S1P transporter assay: growth of S. cerevisiae strain with forced expression of a mammalian SphK and human SPNS2). Details: in vitro inhibition of SPNS2; growth of S. cerevisiae strain expressing mammalian SphK and human SPNS2; compounds as their pharmaceutical salts.
T1 construct: expressed in transfected cells; host or cells: Saccharomyces cerevisiae strain with forced expression of a mammalian SphK and human SPNS2
T1 sequence (Q8IVW8 1-549): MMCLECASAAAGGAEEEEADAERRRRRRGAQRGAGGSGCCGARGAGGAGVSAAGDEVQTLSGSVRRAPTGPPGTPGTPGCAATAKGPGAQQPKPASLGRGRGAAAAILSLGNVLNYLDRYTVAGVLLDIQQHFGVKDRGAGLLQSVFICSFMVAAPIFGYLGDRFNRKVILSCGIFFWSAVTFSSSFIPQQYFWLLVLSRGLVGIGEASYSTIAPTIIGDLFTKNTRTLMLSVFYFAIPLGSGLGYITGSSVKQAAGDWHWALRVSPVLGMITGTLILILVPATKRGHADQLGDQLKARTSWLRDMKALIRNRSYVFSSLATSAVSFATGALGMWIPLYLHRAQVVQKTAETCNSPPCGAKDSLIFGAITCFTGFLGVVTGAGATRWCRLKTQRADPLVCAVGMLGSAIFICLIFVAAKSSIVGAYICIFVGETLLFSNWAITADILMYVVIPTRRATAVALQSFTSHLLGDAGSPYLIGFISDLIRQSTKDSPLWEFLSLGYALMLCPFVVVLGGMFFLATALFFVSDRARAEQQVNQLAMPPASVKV
Format: cell-based
Excerpt: Transporter assays are vectorial and, therefore, require measurement of the transported analyte in different compartments. The assay of S1P transporters is problematic because S1P is exported, but not imported, by SPNS2, which obviates measuring uptake of mass- or radio-labeled S1P into transporter-expressing cells.
To assay for SPNS2 inhibitor hits, we took advantage of the growth inhibitory effects of excessive levels of phosphorylated Long Chain Base (phospho-LCB) levels on the budding yeast, S. cerevisiae (Kharel Y, et al. Saccharomyces cerevisiae as a platform for assessing sphingolipid lipid kinase inhibitors. PLoS One 13, e0192179 (2018) PMC5908134). Yeast lack the desaturase that converts dihydroceramide to ceramide and, therefore, have neither sphingosine nor S1P. Rather, yeast have the reduced form, dihydrosphingosine, and the 4-hydroxyl analog, phytosphingosine and their respective phosphates. Like all eukaryotes, the yeast synthesizes (via LCB kinases (SphKs)) and degrades (via phospho-LCB lyase and phosphatase) phospho-LCBs, (dhS1P, phytoS1P). Yeast lack phospho-LCB transporters such as SPNS2, which are found only in vertebrates. To assess inhibition of SPNS2 in vitro, we used a strain of S. cerevisiae wherein expression of a mammalian SphK and human SPNS2 were forced. SPNS2 inhibitors decrease the growth of this strain. Table 2 below presents in vitro inhibition data against SPNS2 for exemplary compounds, presented here as their pharmaceutical salts, of the disclosure (A≤2 μM, B>2 μM).

IC50 [µM]	SMILES
> 2	CC(C)(C)c1cccc(Nc2ccc(-c3noc([C@@H]4CCNC4)n3)cn2)c1 [Compound 13g, (R)—N-(3-(tert-butyl)phenyl)-5-(5-(pyrrolidin-3-yl)-1,2,4-oxadiazol-3-yl)pyridin-2-amine hydrochloride]
> 2	CCCCCCCCCCc1ccc(Nc2ccc(-c3noc([C@@H]4CCNC4)n3)cn2)cc1 [Compound 13h, (R)—N-(4-decylphenyl)-5-(5-(pyrrolidin-3-yl)-1,2,4-oxadiazol-3-yl)pyridin-2-amine hydrochloride]
> 2	CCCCc1ccc(Nc2ccc(-c3noc([C@@H]4CCNC4)n3)cn2)cc1 [Compound 13i, (R)—N-(4-butylphenyl)-5-(5-(pyrrolidin-3-yl)-1,2,4-oxadiazol-3-yl)pyridin-2-amine hydrochloride]
> 2	c1ccc(CCCOc2ccc(-c3noc(C4CNC4)n3)cc2)cc1 [Compound 13j, 5-(azetidin-3-yl)-3-(4-(3-phenylpropoxy)phenyl)-1,2,4-oxadiazole hydrochloride]
> 2	N=C(N)N1CC[C@@H](c2nc(-c3ccc(N4CCCCC4)nc3)no2)C1 [Compound 15a, (R)-3-(3-(6-(piperidin-1-yl)pyridin-3-yl)-1,2,4-oxadiazol-5-yl)pyrrolidine-1-carboximidamide hydrochloride]
> 2	CCCCCCCCNc1ccc(-c2noc([C@@H]3CCN(C(=N)N)C3)n2)cn1 [Compound 15b, (R)-3-(3-(6-(octylamino)pyridin-3-yl)-1,2,4-oxadiazol-5-yl)pyrrolidine-1-carboximidamide hydrochloride]
> 2	N=C(N)N1CCC[C@@H](c2nc(-c3ccc(Nc4ccc(OC(F)(F)F)c(F)c4)nc3)no2)C1 [Compound 15c, (R)-3-(3-(6-((3-fluoro-4-(trifluoromethoxy)phenyl)amino)pyridin-3-yl)-1,2,4-oxadiazol-5-yl)piperidine-1-carboximidamide hydrochloride]
> 2	N=C(N)N1CC[C@@H](c2nc(-c3ccc(N4CCOCC4)nc3)no2)C1 [Compound 15d, (R)-3-(3-(6-morpholinopyridin-3-yl)-1,2,4-oxadiazol-5-yl)pyrrolidine-1-carboximidamide hydrochloride]
> 2	N=C(N)N1CC[C@@H](c2nc(-c3ccc(Nc4ccccc4Cl)nc3)no2)C1 [Compound 15e, (R)-3-(3-(6-((2-chlorophenyl)amino)pyridin-3-yl)-1,2,4-oxadiazol-5-yl)pyrrolidine-1-carboximidamide hydrochloride]
> 2	N=C(N)N1CC[C@@H](c2nc(-c3ccc(Nc4cc(Br)ccc4Br)nc3)no2)C1 [Compound 15f, (R)-3-(3-(6-((2,5-dibromophenyl)amino)pyridin-3-yl)-1,2,4-oxadiazol-5-yl)pyrrolidine-1-carboximidamide hydrochloride]
> 2	CC(C)(C)c1cccc(Nc2ccc(-c3noc([C@@H]4CCN(C(=N)N)C4)n3)cn2)c1 [Compound 15g, (R)-3-(3-(6-((3-(tert-butyl)phenyl)amino)pyridin-3-yl)-1,2,4-oxadiazol-5-yl)pyrrolidine-1-carboximidamide hydrochloride]
≤ 2	CCCCCCCCCCc1ccc(Nc2ccc(-c3noc([C@@H]4CCN(C(=N)N)C4)n3)cn2)cc1 [Compound 15h, (R)-3-(3-(6-((4-decylphenyl)amino)pyridin-3-yl)-1,2,4-oxadiazol-5-yl)pyrrolidine-1-carboximidamide hydrochloride]
> 2	CCCCc1ccc(Nc2ccc(-c3noc([C@@H]4CCN(C(=N)N)C4)n3)cn2)cc1 [Compound 15i, (R)-3-(3-(6-((4-butylphenyl)amino)pyridin-3-yl)-1,2,4-oxadiazol-5-yl)pyrrolidine-1-carboximidamide hydrochloride]
> 2	N=C(N)N1CC(c2nc(-c3ccc(OCCCc4ccccc4)cc3)no2)C1 [Compound 15j, 3-(3-(4-(3-phenylpropoxy)phenyl)-1,2,4-oxadiazol-5-yl)azetidine-1-carboximidamide hydrochloride]
> 2	CCCCCCCOc1ccc(-c2noc([C@@H]3CCCNC3)n2)cc1C(F)(F)F [Compound 21c, (R)-3-(4-(heptyloxy)-3-(trifluoromethyl)phenyl)-5-(piperidin-3-yl)-1,2,4-oxadiazole hydrochloride]
> 2	CCCCCCCCOc1ccc(-c2noc([C@@H]3CCCNC3)n2)cc1C(F)(F)F [Compound 21d, (R)-3-(4-(octyloxy)-3-(trifluoromethyl)phenyl)-5-(piperidin-3-yl)-1,2,4-oxadiazole hydrochloride]
> 2	CCCCCCCCCCOc1ccc(-c2noc([C@@H]3CCCNC3)n2)cc1C(F)(F)F [Compound 21f, (R)-3-(4-(decyloxy)-3-(trifluoromethyl)phenyl)-5-(piperidin-3-yl)-1,2,4-oxadiazole hydrochloride]
> 2	FC(F)(F)c1cc(-c2noc([C@@H]3CCCNC3)n2)ccc1OCCCc1ccccc1 [Compound 21j, (R)-3-(4-(3-phenylpropoxy)-3-(trifluoromethyl)phenyl)-5-(piperidin-3-yl)-1,2,4-oxadiazole hydrochloride]
≤ 2	CCCCCCCCOc1ccc(-c2noc(C3CN(C(=N)N)C3)n2)cc1C(F)(F)F [Compound 23a, 3-(3-(4-(octyloxy)-3-(trifluoromethyl)phenyl)-1,2,4-oxadiazol-5-yl)azetidine-1-carboximidamide hydrochloride]
≤ 2	CCCCCCCCCOc1ccc(-c2noc(C3CN(C(=N)N)C3)n2)cc1C(F)(F)F [Compound 23b, 3-(3-(4-(nonyloxy)-3-(trifluoromethyl)phenyl)-1,2,4-oxadiazol-5-yl)azetidine-1-carboximidamide hydrochloride]
≤ 2	CCCCCCCOc1ccc(-c2noc([C@@H]3CCCN(C(=N)N)C3)n2)cc1C(F)(F)F [Compound 23c, (R)-3-(3-(4-(heptyloxy)-3-(trifluoromethyl)phenyl)-1,2,4-oxadiazol-5-yl)piperidine-1-carboximidamide hydrochloride]
> 2	CCCCCCCCOc1ccc(-c2noc([C@@H]3CCCN(C(=N)N)C3)n2)cc1C(F)(F)F [Compound 23d, (R)-3-(3-(4-(octyloxy)-3-(trifluoromethyl)phenyl)-1,2,4-oxadiazol-5-yl)piperidine-1-carboximidamide hydrochloride]
≤ 2	CCCCCCCCCOc1ccc(-c2noc([C@@H]3CCCN(C(=N)N)C3)n2)cc1C(F)(F)F [Compound 23e, (R)-3-(3-(4-(nonyloxy)-3-(trifluoromethyl)phenyl)-1,2,4-oxadiazol-5-yl)piperidine-1-carboximidamide hydrochloride]
≤ 2	CCCCCCCCCCOc1ccc(-c2noc([C@@H]3CCCN(C(=N)N)C3)n2)cc1C(F)(F)F [Compound 23f, (R)-3-(3-(4-(decyloxy)-3-(trifluoromethyl)phenyl)-1,2,4-oxadiazol-5-yl)piperidine-1-carboximidamide hydrochloride]
> 2	N=C(N)N1CC(c2nc(-c3ccc(OCc4ccc(C(F)(F)F)cc4)c(C(F)(F)F)c3)no2)C1 [Compound 23g, 3-(3-(3-(trifluoromethyl)-4-((4-(trifluoromethyl)benzyl)oxy)phenyl)-1,2,4-oxadiazol-5-yl)azetidine-1-carboximidamide hydrochloride]
> 2	N=C(N)N1CCC[C@@H](c2nc(-c3ccc(OCc4ccc(C(F)(F)F)cc4)c(C(F)(F)F)c3)no2)C1 [Compound 23h, (R)-3-(3-(3-(trifluoromethyl)-4-((4-(trifluoromethyl)benzyl)oxy)phenyl)-1,2,4-oxadiazol-5-yl)piperidine-1-carboximidamide hydrochloride]
> 2	N=C(N)N1CC(c2nc(-c3ccc(OCCCc4ccccc4)c(C(F)(F)F)c3)no2)C1 [Compound 23i, 3-(3-(4-(3-phenylpropoxy)-3-(trifluoromethyl)phenyl)-1,2,4-oxadiazol-5-yl)azetidine-1-carboximidamide hydrochloride]
> 2	N=C(N)N1CCC[C@@H](c2nc(-c3ccc(OCCCc4ccccc4)c(C(F)(F)F)c3)no2)C1 [Compound 23j, (R)-3-(3-(4-(3-phenylpropoxy)-3-(trifluoromethyl)phenyl)-1,2,4-oxadiazol-5-yl)piperidine-1-carboximidamide hydrochloride]
